Reference: patent publication US12227548B2, “Use of IRE1α-XBP1 signaling pathway biomarkers for modulating immune responses” (Dana-Farber Cancer Institute, Inc., priority 2018, dated 2025)

What was measured:
human primary NK cells = assay: Metabolic flux assay (oxygen consumption rate) of IL-12 and IL-18 activated human primary NK cells; type: cell-based; details: IL-12 and IL-18 for 16 hr, inhibitor 5 μM; FIG. 14C
Method: Genes were clustered by functional annotation. c-Myc-regulated genes (Morrish and Hockenbery (2014) Cold Spring Harb. Perspect. Med. 4:a014225) are shown in black text on the right. […] Primary human NK cells isolated from PBMC were incubated with IL-12 and IL-18 for 16 hr, in the presence or absence of the IRE1α inhibitor 4μ8C (5 uM). Approximately 600,000 cells were plated per well, and the data were normalized to total protein quantification. Oligo (Oligomycin, 1 μM), FCCP (carbonyl cyanide-p-(trifluoromethoxy) phenylhydrazone, 1 μM), R (rotenone, 0.5 μM) and A (antimycin, 0.5 μM).
Purified human primary NK cells from healthy PBMC donors were stimulated with human recombinant IL-12 and IL-18 for 16 hr in complete RPMI medium, in the presence or absence of IRE1 inhibitor 4μ8C (5 μM). After incubation, NK cells were collected, thoroughly washed and then subjected to Seahorse analyses using non-buffered XF base medium containing 25 mM glucose, 2 mM L-glutamine, and 1 mM sodium Pyruvate but lacking serum. […] 6×10^5 NK cells were plated and OCR measurements were analyzed on an XFe96 Extracellular Flux Analyzer (Agilent). After basal OCR measurements were obtained, an OCR trace was recorded in response to oligomycin (1 μM), carbonyl cyanide-p-(trifluoromethoxy) phenylhydrazone (FCCP, 1 μM), and rotenone and antimycin (0.5 μM each) following the XF Cell Mito Stress test kit (Agilent). […]

[1] = tested on: c-Myc promoter activation in Myc^GFP NK cells; assay: c-Myc reporter (Myc^GFP) expression in splenic NK cells treated with cytokines; type: cell-based, mouse; details: FIG. 9H
Method: Genes were clustered by functional annotation. […] Equal numbers of Ly49H^+ NK cells from wild type and knockout donors were co-transferred into recipient Ly49H-deficient mice 1 day before infection. […] Anti-XBP1s Ab was used and IgG was used as mock control. FIG. 9H show the representative flow cytometric plots (left) and quantification of c-Myc reporter expression. Before assessment, splenic NK cells from c-Myc reporter mice (Myc^GFP) were treated with indicated cytokines for 16 hours, either in the presence or absence of the IRE1 inhibitor (IRE1i) 4μ8c. […] Equal numbers of Ly49H^+ NK cells from wild type and Myc^NK donors were co-transferred into recipient Ly49H− deficient mice 1 day before infection. […] One sample t-test performed on FIG. 9J. Two tailed unpaired Student's t-test performed on FIG. 9D and FIG. 9G. Two-way analysis of variance (ANOVA) with the Sidak post-test performed on FIGS. 9E, and 9I. […] Each column in FIG. 9B is a different mouse. Data are representative of three (FIGS. 9C-9E and FIG. 9G) and two independent repeats (FIGS. 9F, 9H, 9I and 9J). Data were independently repeated three (FIGS. 9D and 9H) and two (FIGS. 9G-9J). N equals 3 or 4 mice/group in FIG. 9D and FIG. 9J; n equals 3 technical replicates/group in FIG. 9G; n equals 3 replicates/treatment in ex vivo culture in FIG. 9H; n equals 5 mice/group in FIG. 9I. […]

mouse NK cells = assay: Ex vivo expansion of mouse NK cells (Myc^OE and littermate control) with IL-2 and IL-15, CTV dilution; type: cell-based; details: IL-2 and IL-15 for 3 days, FIG. 15B
Method: FIG. 15A-FIG. 15E show the restoration of c-Myc in the absence of IRE1 rescues the NK cell proliferation defect. […] FIG. 15C-FIG. 15E show WT (Myc^fsf/+ IRE1^f/f Ncr1^Cre−), IRE1^NK (Myc^+/+ IRE1^f/f Ncr1^Cre+) Myc^OE (Myc^fsf/+ IRE1^+/+ Ncr1^Cre+) and Myc^OE IRE1^NK (Myc^fsf/+ IRE1^f/f Ncr1^Cre+) NK cells pre-labeled with CTV and cultured ex vivo with IL-2 and IL-15. […] P values are as indicated; ns=not significant. One sample t-test is performed on FIG. 15A. One-way analysis of variance (ANOVA) with the Tukey post-test is performed on FIGS. 15C-15E. All error bars are s.e.m. N=5 mice/group in FIG. 15A, n=2 mice/group in FIG. 15B and n=4 mice/group in FIGS. 15C-15E. […] Experiments in FIGS. 15B-15E were independently repeated three times.
For FIG. 1E, ˜2×10^5 sorted splenic NK cells were stimulated for 16 hr in complete RPMI containing 10% FBS with recombinant mouse IL-2 ([…]; BioLegend), either in the presence or absence of IL-12 (20 ng/ml; Peprotech) and IL-18 (10 ng/ml; R&D Systems). For ex vivo NK cell expansion experiments, 2.5×10^5 sorted NK cells (>97% purity) were stimulated in RPMI supplemented with 10% FBS, penicillin-streptomycin, L-glutamine and β-mercaptoethanol, and with recombinant mouse IL-2 (10 ng/ml; R&D Systems) and IL-15/15R (40 ng/ml; eBioscience) re-applied every other day. […]

primary human NK cells = assay: Ex vivo expansion of primary human NK cells with IL-2 and IL-15, CTV dilution; type: cell-based
Method: Equal numbers of NK cells from wild-type and IRE1^NK donors were labelled with cell proliferation tracing dye CTV, and then co-transferred into lymphocyte-lacking recipient Rag2-/-Il2rg-/- mice. Flow cytometric evaluation of NK cell expansion and proliferation was performed in the spleen of recipient mice at day 3-5 after transfer. […] IRE1^NK and IRE1^f/f NK cells from littermate animals were pre-labeled with CTV and cultured ex vivo with IL-2 and IL-15 for the indicated number of days. […] Two-way analysis of variance (ANOVA) with the Sidak post-test performed on FIGS. 7B and 7D. Two tailed unpaired Student's t-test performed on FIG. 7C. One-way analysis of variance (ANOVA) with the Tukey post-test performed on FIG. 7G. Two tailed paired Student's t-test performed on FIGS. 7F, 7I and 7J. All error bars show the standard deviation. Data are representative of three (FIGS. 7B and 7C) and two (FIGS. 7D-7E and 7G-7H) independent repeats. Data in FIGS. 7F, 7I and 7J are pooled from two independent repeats. N equals 2 mice/group in FIG. 7B. N equals 4 mice/group in FIGS. 7C, 7G and 7H. N equals 3 mice/group (and technical duplicates for ex vivo culture) in FIGS. 7D and 7E. N equals 6, 5 and 5 PBMC donors in FIGS. 7F, 7I and 7J. Peripheral blood mononuclear cells (PBMCs) from healthy donors (New York Blood Center) were isolated by density gradient centrifugation with Ficoll (GE Healthcare). […]

[2] = tested on: Chop and IRE1α/XBP1 pathway in NK cells; assay: Ex vivo incubation of splenic NK cells with tunicamycin, XBP1 splicing assay and qRT-PCR of UPR genes; type: cell-based, mouse; details: 4 hours ex vivo incubation, FIG. 3A
Excerpt: The quantitative real time PCR data were presented as relative expression to β-Actin. […] BM NK cells were identified by Lin^−CD122 and splenic NK cells were identified by Lin^−NK1.1^+. Ns indicates “not significant”, * indicates p<0.05, ** indicates p<0.01, *** indicates p<0.001 and **** indicates p<0.0001. Two tailed unpaired Student's t-test performed on FIG. 3A. All error bars show standard deviation. N equals 3 mice/group in FIG. 3A and FIG. 3D. N equals 5 mice/group in FIGS. 3B-3C and FIG. 3F. N equals 10 mice in FIG. 3E. Experiments were independently repeated three (FIGS. 3A-3C and 3E-3F) and two ([…] FIG. 3D) times.
Cells were pre-enriched (Miltenyi Biotec) and then sorted to >95% purity and RNA was isolated using the RNeasy® RNA purification mini (for 5×10^5 cells or beyond) or micro (for <5×10^5 cells) kit (Qiagen) according to the manufacturer's protocol. From purified RNA, cDNA was synthesized using the reverse-transcriptase kit gScript™ cDNA synthesis kit (Quanta Biosciences). Quantitative real time PCR (qRT-PCR) was performed in triplicates in a 384-well plate using Taqman® Probes (Themo Fisher) or SYBR® Green (Quanta Biosciences)-based detection on an ABI QuantStudio™ 6 Flex qRT-PCR machine. For experiments in FIG. 9D, CellDirect™ One-Step qRT-PCR Kit with Rox (Life Technologies) was used according to the manufacturer's instruction. […]

Cc1cc(=O)oc2c(C=O)c(O)ccc12 [4μ8c, 8-formyl-7-hydroxy-4-methylcoumarin]
levels of OXPHOS (basal OCR) (human primary NK cells): significantly decreased levels of OXPHOS | maximal respiration rate (human primary NK cells): reduced maximal respiration rate | c-Myc reporter GFP induction under IRE1α blockade ([1]; Myc^GFP NK cells stimulated with IL-15, or IL-12 and IL-18, 16 hours): GFP induction was largely impeded | proliferation of NK cells from Myc^OE mice (mouse NK cells; inhibitor 5 μM vs DMSO): proliferated to a comparable extent as in the DMSO-treated control group | proliferation of NK cells from WT littermates (mouse NK cells; inhibitor 5 μM): impaired in proliferation | proliferation of CD56^bright versus CD56^dim NK cells (primary human NK cells; IL-2 and IL-15, day 6, FIG. 7I): primarily hindered the proliferation of CD56^bright NK cells | proliferation of primary human NK cells (primary human NK cells; cultured in IL-2 and IL-15, 5 μM inhibitor vs DMSO, day 6, FIG. 7F): significant reduction in proliferation

IL-15: recombinant cytokine IL-15
c-Myc reporter GFP ([1]; Myc^GFP NK cells, 16 hours, in the absence of 4μ8c): c-Myc reporter GFP was induced

tunicamycin
Chop expression [2]: strongly triggered Chop expression | IRE1α/XBP1 pathway [2]: upregulation of the IRE1α/XBP1 pathway
